The text below walks through data of publication PMC11370232, “Repurposing of a library for high-content screening of inhibitors against Echinococcus granulosus” (Parasites & Vectors, 2024).

The test system of series [1] is EGFR(L858R). As to conditions: ref SelleckChem library description; cited from earlier work.
Series [2] deals with EGFR(E746_A750). Set-up: method as in SelleckChem library description. To be noted: ref SelleckChem library description; cited from earlier work.
Series [3] concerns CDK1, 2, 4, 6 and 9. Also noted: method as in SelleckChem library description. As to conditions: read-out: IC50, CDK1, 2, 4, 6 and 9; cell-free assays; ref SelleckChem library description; cited from earlier work.
For series [4], the target named is Bcl-2. Set-up: method as in SelleckChem library description. To be noted: cell-free assay; ref SelleckChem library description; cited from earlier work.
Series [5] concerns HER2. Set-up: method as in SelleckChem library description. To be noted: ref SelleckChem library description; cited from earlier work.
In series [6] the test system is Akt2. Set-up: method as in SelleckChem library description. To be noted: ref SelleckChem library description; cited from earlier work.
Series [7] concerns ROCKII. Set-up: method as in SelleckChem library description. As to conditions: ref SelleckChem library description; cited from earlier work.
The test system of series [8] is Akt1. Set-up: method as in SelleckChem library description. As to conditions: ref SelleckChem library description; cited from earlier work.
Series [9] has as its system ROCKI. Set-up: method as in SelleckChem library description. To be noted: ref SelleckChem library description; cited from earlier work.
In series [10] the test system is PKA. Also noted: method as in SelleckChem library description. As to conditions: ref SelleckChem library description; cited from earlier work.
Series [11] deals with p70S6K. Also noted: method as in SelleckChem library description. To be noted: ref SelleckChem library description; cited from earlier work.
Series [12] concerns Akt3. Set-up: method as in SelleckChem library description. To be noted: ref SelleckChem library description; cited from earlier work.
Series [13] deals with PDGFR. Also noted: method as in SelleckChem library description. To be noted: ref SelleckChem library description; cited from earlier work.
Series [14] has as its system EGFR. Set-up: method as in SelleckChem library description. To be noted: ref SelleckChem library description; cited from earlier work.
Series [15] has as its target glucokinase (GK). Also noted: method as in SelleckChem library description. As to conditions: ref SelleckChem library description; read-out: EC50, glucokinase activation; cited from earlier work.
Series [16] concerns the target DNA synthesis. Set-up: method as in SelleckChem library description. To be noted: cell-free assay; ref SelleckChem library description; cited from earlier work.
Series [17] deals with PI3Kα. Set-up: method as in SelleckChem library description. To be noted: ref SelleckChem library description; cited from earlier work.
Series [18] concerns PI3Kγ. Also noted: method as in SelleckChem library description. To be noted: ref SelleckChem library description; cited from earlier work.
The subject of series [19] is PI3Kβ. Set-up: method as in SelleckChem library description. To be noted: ref SelleckChem library description; cited from earlier work.
For series [20], the system named is lab-cultured E. granulosus microcysts (< 1 mm). Nature of the series: In vitro microcyst viability assay. It counts as cell-based, Echinococcus granulosus. As to conditions: 10 μM, 4 days. Here is the method:
The in vitro E. granulosus culture progression was divided into two stages: an early stage in which the PSC culture was established by digesting echinococcal cysts isolated from naturally infected sheep livers, followed by a late stage with differentiation into cysts. CSCs were cultured from PSCs according to our previously described method. Briefly, the PSCs were incubated at 37 °C in glass culture vessels in RPMI 1640 medium (Invitrogen, San Diego, CA) containing 20% (v/v) FCS (Invitrogen), 0.45% (w/v) yeast extract, 0.4% (w/v) glucose, 100 IU/mL penicillin, and 100 μg/mL streptomycin placed on a solid-phase base prepared by heating newborn calf serum at 75 °C for 45 min (Smyth, 1990). Approximately 100 PSCs/mL were cultured, and the liquid medium was replaced every 3 days. After 56 days of cultivation, about 10% of the PSCs had developed into cysts with a thin laminated layer. The external diameter of the cysts was 328.6 ± 48 μm, and they appeared to the naked eye as clear capsular cysts. The cysts were carefully aspirated from the culture flasks and separated from dead or undeveloped PSCs by Pasteur pipetting. CSCs included microcysts and cysts: the diameter of the microcysts ranged from 300 μm to 1 mm, and the diameters of the cysts were greater than 1 mm.
CSCs were cultured from PSCs utilizing the method described in a previous section. The in vitro cultured cysts (10 ± 5/well) or microcysts (10 ± 5/well) were seeded in 96-well plates before adding drugs. For the cyst/microcyst viability assay, cysts or microcysts were cultured in one well of a 96-well plate. After 1 day of culture, drugs were added to each well at a final concentration of 10 μM. For the cyst viability assay, the cyst survival rate was determined every 24 h after incubation with drugs, while for the microcyst viability assay, the survival rate of microcysts was determined at 4 days after drug incubation. The following equation was used for the death rate: death rate of CSCs (%) = 100 × (number of dead CSCs/number of total CSCs).

The test system of series [21] is lab-cultured E. granulosus cysts (> 1 mm). Nature of the series: In vitro cyst viability assay. As to conditions: Echinococcus granulosus, 72 h; 10 μM, day 3 post-treatment; read-out: inhibitory rate against the cysts. Type of series: cell-based, Echinococcus granulosus.
Series [22] can be described thus: Cytotoxicity in HepG2. As to conditions: human, HepG2 cells.
In series [23] the target is opioid receptor-like1 (ORL1) receptor. Also noted: method as in SelleckChem library description. To be noted: ref SelleckChem library description; cited from earlier work.
Series [24] relates to Pim2. Set-up: method as in SelleckChem library description. To be noted: ref SelleckChem library description; cited from earlier work.
In series [25] the test system is Pim1. Also noted: method as in SelleckChem library description. As to conditions: ref SelleckChem library description; cited from earlier work.
Series [26] concerns Pim3. Also noted: method as in SelleckChem library description. As to conditions: ref SelleckChem library description; cited from earlier work.
Series [27] deals with Rac1 in MDA-MB-435 and MDA-MB-231 cells. Also noted: method as in SelleckChem library description. To be noted: ref SelleckChem library description; cited from earlier work.

Structures can show the parent of a compound that is named as a salt.

On to `C=CC(=O)Nc1cccc(Oc2nc(Nc3ccc(N4CCN(C)CC4)cc3)ncc2Cl)c1` [WZ3146], for which the IC50 in series [1] and in series [2] was 2 nM in each case.
Turning to `O=C(NC1CCNCC1)c1[nH]ncc1NC(=O)c1c(Cl)cccc1Cl` [AT7519 HCl], in series [3], the IC50 (commonly the concentration needed to halve the response being measured) was […].
Consider `COC1=CC(c2cc3ccccc3[nH]2)=N/C1=C\c1[nH]c(C)cc1C` [Obatoclax Mesylate (GX15-070), Obatoclax Mesylate], for which the Ki (in general, the dissociation constant of the complex between target and ligand, obtained from inhibition or displacement) in series [4] was 220 nM.
As to `CN(C)C/C=C/C(=O)Nc1cc2c(Nc3ccc(F)c(Cl)c3)ncnc2cc1O[C@H]1CCOC1` [Afatinib (BIBW2992) Dimaleate], the IC50 in series [5] is 14 nM.
With `NC[C@@](O)(c1ccc(Cl)cc1)c1ccc(-c2cn[nH]c2)cc1` [AT13148], the IC50 was 402 nM in series [6]; 4 nM in series [7]; 38 nM in series [8]; 6 nM in series [9]; 3 nM in [10]; 8 nM in series [11]. Further, the IC50 in [12] was 50 nM.
For `CC(C)(C)c1cc(C=C(C#N)C#N)cc(C(C)(C)C)c1O` [Tyrphostin 9], the IC50 in series [13] is 500 nM; in series [14], 460000 nM.
In the case of `O=C(Nc1ncc(SCCN2CCCC2)s1)[C@]1(c2ccc(S(=O)(=O)C3CC3)cc2)C[C@H]1C1CCCCC1` [LY2608204], in series [15], the EC50 (in general, the midpoint of the concentration-response curve) is 42 nM.
In the case of `COc1cccc2c1C(=O)c1c(O)c3c(c(O)c1C2=O)C[C@@](O)(C(C)=O)C[C@@H]3O[C@H]1C[C@H](N)[C@H](O)[C@H](C)O1` [Daunorubicin HCl], the Ki in [16] was 20 nM.
For the compound `COc1ccc(-c2ccc3ncc4c(c3c2)n(-c2ccc(N3CCNCC3)c(C(F)(F)F)c2)c(=O)n4C)cn1` [BGT226 (NVP-BGT226), BGT226], the IC50 in [17] is 4 nM; in [18], 38 nM; in [19], 63 nM.
`CCc1ccc(OCc2ccccc2C(=O)Nc2ccc3nc(C)cc(N)c3c2)cc1` [JTC-801]: in [20], the “effect on microcyst viability” value is given as “did not exert a significant inhibitory effect”. Besides, the inhibition at 10 µM in series [21] is 100%. Besides, the CC50 (commonly the concentration giving 50% cytotoxicity) in [22] stood at 7430 nM. In addition, the IC50 in series [23] was 94 nM.
In the case of `CN1CCCN(C(=O)c2cccc(-c3ccc(/C=C4/C(=O)Nc5ccc(Cl)cc54)o3)c2)CC1` [CX-6258 HCl], the results for the IC50 in series [24], in series [25] and in series [26] were 25 nM, […] and 16 nM, respectively.
As to `CCn1c2ccccc2c2cc(Nc3ccnc(NCCCN4CCOCC4)n3)ccc21` [EHop-016], in [27], the IC50 is 1100 nM.
